# Data published in patent US20230054039A1, “METHOD OF TREATING HER2-POSITIVE BREAST CANCER” (University of Cincinnati, priority 2021, published 2023).
# Peptide text beside a SMILES is read from it. * marks the point of attachment. Cbz = O=C(OCc1ccccc1)*
# Tests used:
# [1] = test system: FIP200 and ATG13 KO HeLa cells; experiment: Immunoblot of HER2 in FIP200 KO and ATG13 KO HeLa cells treated with Dynasore (FIG. 13C); type: cell-based; details: 20 μM Dynasore for 24 hours
# Protocol: FIG. 13C. Immuno-blots showing levels of HER2 and GAPDH in WT, FIP200 KO and ATG13 KO HeLa cells with or without treatment of 20 μM Dynasore for 24 hours, as indicated.
# (§1) Western blot: Cells were cultured in 3.5 cm diameter plates (80-90% confluence), washed by PBS buffer, and lysed for 15 min on ice using a RIPA buffer (#C2978, Sigma) containing an anti-protease mix (#PI78415, Thermo Scientific). Protein concentration was measured by BCA assay (#23225, Thermo Scientific). Equal amounts of proteins were subjected to SDS-PAGE and immunoblotting as described previously (Wei et al., 2011).
# To test the above possibility directly, endocytosis of HER2 in HeLa cells with or without autophagy blockade was examined. […] In addition to endocytosis from the plasma membrane, proteins from the Golgi could be transported through endosomes to the lysosome or other compartments. […] Co-expression of mTurquoise2-beta-1,4-galactosyltransferase 1 (which constitutively expresses in the Golgi) in these cells further supported accumulation of HER2 in the Golgi of FIP200 and ATG13 KO HeLa cells (FIG. 4E).
# Fip200−/− tumor cells = experiment: Immunoblot of HER2 in Fip200-/- tumor cells treated with MG132 (FIG. 3C); type: cell-based, mouse; details: MG132 10 μM for 6 hours
# Protocol: FIG. 3C. Immunoblots showing levels of HER2, ubiquitin and GAPDH in Fip200+/+ and Fip200−/− cells treated with DMSO and MG132 (10 μM) for 6 hours.
# Cell lines and culture: Primary HER2 tumor cells from FIP200f/f; MMTV-Neu mice (N148 and N418 cells) were isolated and cultured in DMEM/F12 supplemented with 10% FBS, 10 ng/mL EGF, […], and 50 units/mL penicillin-streptomycin. HER2 tumor cells were then infected with recombinant retroviruses encoding CreERT2 and deletion of Fip200 was induced by culturing with 100 nmol/L 4-hydroxytamoxifen (4-OHT). HeLa and MCF-7 cells were obtained from ATCC and maintained in DMEM supplemented with 10% FBS. FIP200 KO and control WT MEF cells have been described previously.
# as §1, with “Equal amounts of proteins were subjected to SDS-PAGE and immunoblotting as described previously (Wei et al., 2011).” left out
# To further investigate regulation of HER2 by autophagy, mRNA levels of HER2 in mammary tumor and HeLa cells with or without autophagy inhibition were examined. […] Next, HER2 protein stability was analyzed and a decreased half-life of HER2 protein in Fip200−/− tumor cells (˜3 hrs) relative to Fip200+/+tumor cells (˜5 hrs) (FIGS. 3A and 3B) was observed. […]
# [2] = test system: FIP200 and ATG13 KO HeLa cells; experiment: Immunoblot of HER2 in FIP200 KO and ATG13 KO HeLa cells treated with MG132 (FIG. 3D); type: cell-based; details: MG132 10 μM for 6 hours
# Protocol: FIG. 3D. Immunoblots showing levels of HER2, ubiquitin and GAPDH in WT, FIP200 KO and Atg13 KO HeLa cells treated with DMSO and MG132 (10 μM) for 6 hours.
# CRISPR/Cas9-mediated knockout of FIP200 or ATG13 in HeLa and MCF-7 cells and knockdown of Atg5 in HER2 tumor cells: The pX458 plasmid, pSpCas9(BB)-2A-GFP (PX458) was a gift from Feng Zhang, Addgene plasmid # 48138 was used as the cloning backbone for expressing sgFIP200 and sgATG13. The sgRNA sequences of FIP200 and ATG13 are as follows:
# as §1, with “Equal amounts of proteins were subjected to SDS-PAGE and immunoblotting as described previously (Wei et al., 2011).” left out
# To further investigate regulation of HER2 by autophagy, mRNA levels of HER2 in mammary tumor and HeLa cells with or without autophagy inhibition were examined. […] Next, HER2 protein stability was analyzed and a decreased half-life of HER2 protein in Fip200−/− tumor cells (˜3 hrs) relative to Fip200+/+tumor cells (˜5 hrs) (FIGS. 3A and 3B) was observed. MG132 was used to inhibit proteasome-mediated protein degradation and its effect on HER2 protein levels in autophagy deficient HER2 tumor and HeLa cells was determined.
# HeLa cells = experiment: Immunoblot of HER2 levels in HeLa cells treated with autophagy inhibitors (FIG. 2I); type: cell-based; details: 48 hrs, chloroquine 50 μM, bafilomycin 200 nM, 3-MA 5 mM, spautin-1 10 μM
# Protocol: FIG. 2I. Immuno-blots showing levels of HER2 and GAPDH in HeLa cells treated by HBSS starvation, chloroquine (50 μM), bafilomycin (200 nM), 3-methyladenine (3-MA) (5 mM) and spautin-1 (10 μM) for 48 hrs.
# as §1
# To further evaluate the role of autophagy in the regulation of HER2 levels, shRNA was used to knockdown expression of another essential autophagy gene, Atg5, in the two lines of HER2 tumor cells (FIGS. 2F and 2G). […] Further, decreased HER2 levels upon FIP200 deletion was due to autophagy blockade, rather than the loss of other activities of FIP200, in HER2-driven mammary tumor cells, which was consistent with the similar phenotypes of cKO and cKI mice.
structure (smiles),measurement,setting,value
O=C(N/N=C/c1ccc(O)c(O)c1)c1cc2ccccc2cc1O [Dynasore],rescue of decreased level of HER2,[1],did not rescue the decreased level of HER2
CC(C)C[C@@H](C=O)NC(=O)[C@H](CC(C)C)NC(=O)[C@H](CC(C)C)NC(=O)OCc1ccccc1 [MG132] (Cbz-Leu-Leu-Leu-aldehyde),reversal of reduced levels of HER2 protein,Fip200−/− tumor cells,did not significantly reverse the reduced levels of HER2 protein
same,reversal of reduced levels of HER2 protein,[2],did not significantly reverse the reduced levels of HER2 protein
"CO/C1=C\C(C)=C\[C@@H](C)[C@@H](O)[C@@H](C)C/C(C)=C/C=C/[C@H](OC)[C@@H]([C@@H](C)[C@@H](O)[C@H](C)[C@@]2(O)C[C@@H](O)[C@H](C)[C@@H](C(C)C)O2)OC1=O [bafilomycin Al, Bafilomycin A1]",levels of HER2,HeLa cells,reduced HER2 levels
CCN(CC)CCCC(C)Nc1ccnc2cc(Cl)ccc12 (centres unmarked) [chloroquine],levels of HER2,HeLa cells,reduced HER2 levels
